Experimental data from patent publication US10111902B2, “Polymers for reversing heparin-based anticoagulation” (University of British Columbia, priority 2011, dated 2018).
Entries after “also recorded” stand apart in the source; their conditions may differ.

Tests used:
Tinzaparin = assay: Anti Xa neutralization of Tinzaparin in platelet poor plasma; type: biochemical, human; conditions: One IU LMWH per ml in platelet poor plasma
Procedure: (§1) Both JNK-1 and JNK-2 result in greater neutralization of unfractionated heparin at two doses (50 and 100 μg/ml), Tinzaparin (LMWH) and Enoxaparin (LMWH).

Enoxaparin [1] = assay: Anti Xa neutralization of Enoxaparin in platelet poor plasma; type: biochemical, human; conditions: One IU LMWH per ml in platelet poor plasma
Procedure: as §1

[2] = system: unfractionated heparin (UFH); assay: APTT assay, neutralization of UFH in citrate plasma; type: biochemical, human
Procedure: In one example, a heparin binding synthetic polyvalent cationic macromolecule JNK-1 can neutralize UFH in human blood under in vitro conditions (FIGS. 4A and 4B). Citrate plasma was anti-coagulated with 1.0 U/ml UFH (UFH control) and was titrated with different concentrations of JNK-1 polymers (0.009 to 8.69 nanomoles/ml) and protamine (0.2 to 222.2 nanomoles/ml).
(§2) Citrate plasma was anticoagulated with 2.0 U/ml UFH, Enoxaparin and Tinzaparin and was treated with different concentrations of the HBSPCM polymers and protamine (0.001 to 0.25 mg/ml). The APTT was measured for each sample.
(§3) Citrate plasma was anticoagulated with UFH (2.0 IU/mL), Enoxaparin (2.0 IU/mL) and Tinzaparin (1.14 IU/mL) and was titrated with different concentrations of the HBSPCM polymers and protamine (0.001 to 0.25 mg/ml). The APTT was measured for each sample.
(§4) Ability of HBSPCM polymers JNK-9, JNK-10 and JNK-11 was studied for the range of concentration from 0.01 to 0.25 mg/mL prepared in 0.15 M saline. Citrated blood was spun at 3000 RPM for 10 min to obtain platelet poor plasma (PPP). The PPP was then heparinized by adding 45 μL of heparin (UFH, LMWH etc.) to 2200 μL of PPP final concentration of 2.0 IU/mL for UFH and Tinzaparin and 1.14 IU/mL for Enoxaparin. Normal control was prepared by adding 25 μL of 0.15 M saline to 250 μL of PPP. 25 μL of each antidote solution (polymer or protamine) was added to 225 μL of heparinized PPP. 250 μL of APTT reagent (actin FSL) was then added and samples were incubated for 3 min at 37° C. 250 μL of normal control was combined with 250 μL of APTT reagent and also incubated for 3 min. 50 μL of 0.025M CaCl2 was added to 100 μL aliquots of normal control and sample (in triplicate). A heparinized control containing 225 μL of PPP and 25 μL of saline was also prepared and run similar to normal control.

LMWH Tinzaparin = assay: APTT assay, neutralization of LMWH Tinzaparin in citrate plasma; type: biochemical, human
Procedure: Citrate plasma was anti-coagulated with 2.0 U/ml LMWH (LMWH control) and was titrated with different concentrations of JNK-1 polymers (0.009 to 8.69 nanomoles/ml) (FIG. 4A) and protamine (0.2 to 222.2 nanomoles/ml) (FIG. 4B).
as §2, §3
as §4, with “250 μL of normal control was combined with 250 μL of APTT reagent and also incubated for 3 min. 50 μL of 0.025M CaCl2 was added to 100 μL aliquots of normal control and sample (in triplicate). A heparinized control containing 225 μL of PPP and 25 μL of saline was also prepared and run similar to normal control.” left out

Enoxaparin [3] = assay: Thromboelastography (TEG), neutralization of Enoxaparin in whole blood; type: cell-based; conditions: human whole blood; JNK-5 and JNK-6 at 0.1 mg/ml
Procedure: (§5) This example examines thromboelastography in the presence of various heparin binders. Thromboelastography (TEG) provides an in vitro method for monitoring of the evolution of the viscoelastic properties and coagulation kinetics of blood as clotting proceeds. The principle components of the TEG are a cylindrical cup and a bob suspended in the cup from a weak torsion wire. The warmed cup oscillates over a 10 second period through an angle of 4° 45′. Blood is added and a torque is transmitted to the bob as the gel forms. The rate of clot formation, the strength of the clot, and the rate of clot lysis are reflected in the shape traced out by the maxima in the bob oscillation as a function of time (the trace of the TEG). The clot's physical properties, i.e. rate of clot formation, clot strength, and stability are dependent on the interaction of fibrinogen, platelets, and plasma proteins. TEG studies yield the cumulative effect of several components of coagulation (global homeostasis) as a function of time.
(§6) To carry out TEG experiments, citrate anti-coagulated whole blood with heparin or heparin derivatives added are incubated with buffered HBSPCM polymers (sodium citrate or saline) for 1 minute before recalcification at 37° C. Clot formation kinetics are monitored in a TEG machine (350 μl whole blood+35 μl polymer or control solution) at 37° C. […]

complement system = assay: Complement activation, CH50 sheep erythrocyte lysis assay; type: biochemical; conditions: serum, 0.05 and 0.5 mg/mL, 1 h, 37° C
Procedure: The level of complement activation was measured by a CH50 sheep erythrocyte lysis assay. Ten microliter of each of the 0.5 and 5 mg/mL polymers or protamine was mixed with 90 μL of serum for 1 h at 37° C. The final concentration of polymer/protamine to serum was 0.05 and 0.5 mg/mL. One mg/mL heat-activated human IgG and 5 mM EDTA, after mixing with serum, were the positive and negative controls, respectively, for the study. 60 μL of post-incubation serum/polymer or protamine mixture was diluted by 120 μL of GVB^2+ (CompTech). Seventy-five microliter of GVB^2+ diluted serum/polymer or protamine mixture was incubated for 1 h at 37° C. with 75 μL of Ab-sensitized sheep erythrocyte (CompTech). The reaction was stopped by addition of 300 μL cold GVB-EDTA to each sample. The samples were centrifuged and the optical density of supernatant was measured at 540 nm. One hundred percent lysis of the sheep erythrocyte was done by dH2O. The percentage of complement activation was calculated by 100-% lysis of sheep erythrocytes.

blood coagulation = assay: Blood compatibility by thromboelastograph (TEG); type: cell-based; conditions: polymer concentration 0.5 mg/ml
Procedure: as §5, §6

Substance: protamine
- Anti Xa Neutralization (%) of Tinzaparin at 100 μg/ml (Tinzaparin): 77 ± 1%
- Anti Xa Neutralization (%) of Enoxaparin at 100 μg/ml (Enoxaparin [1]): 73 ± 4%
- UFH neutralization (APTT) ([2]; citrate plasma, UFH 2.0 U/ml, polymers and protamine 0.001 to 0.25 mg/ml): neutralizes UFH and LMWH only in the narrow concentration range
- anticoagulant effect at higher concentration (APTT) ([2]; heparinized citrate plasma, 0.001 to 0.25 mg/ml): possesses anticoagulant activity
- anticoagulant effect at high concentration (APTT) ([2]; heparinized human citrate plasma, high doses of antidote): had an anticoagulant effect
- UFH neutralization (APTT) ([2]; human citrate plasma anti-coagulated with UFH (1.0 U/ml), titrated with JNK-1 0.009 to 8.69 or protamine 0.2 to 222.2 nanomoles/ml): complete neutralization occurred at a higher dosage of protamine; also recorded: acted with less efficiency for UFH within a smaller dose window
- LMWH Tinzaparin neutralization (APTT) (LMWH Tinzaparin; citrate plasma, Tinzaparin 2.0 U/ml or 1.14 IU/mL, 0.001 to 0.25 mg/ml): neutralizes UFH and LMWH only in the narrow concentration range
- LMWH Tinzaparin neutralization (APTT) (LMWH Tinzaparin; human citrate plasma anti-coagulated with LMWH Tinzaparin (2.0 U/ml), titrated with JNK-1 0.009 to 8.69 or protamine 0.2 to 222.2 nanomoles/ml): not at all; also recorded: incapable of neutralizing LMWH
- Enoxaparin neutralization (TEG) (Enoxaparin [3]): not effective at neutralizing UFH or LMWH Tinzaparin and Enoxaparin in terms of the time to clot formation
- complement activation (CH50) (complement system): significant complement activation
- coagulation time (R) and kinetics parameter (K), TEG (blood coagulation): different blood coagulation profile
